Data: patent US7138361B2, “Herbicidal heterocycles” (E. I. du Pont de Nemours and Company, priority 2000, dated 2006)

Experiments:
Assay type in all cases: in vivo
[1] = tested on: Surinam grass (Brachiaria decumbens); assay: Test B postemergence; settings: 13 to 15 days
Outline: (§1)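 Preemergence: seeds planted and treated with test chemicals in non-phytotoxic solvent with surfactant; postemergence on plants 2–18 cm (1- to 4-leaf stage). Kept in greenhouse 13–15 days, then visually rated against controls on a 0 (no effect) to 100 (complete control) scale.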

[2] = tested on: barnyardgrass (Echinochloa crus-galli); assay: Test B postemergence; settings: 13 to 15 days
Outline: as §1

[3] = tested on: blackgrass (Alopecurus myosuroides); assay: Test B postemergence; settings: 13 to 15 days
Outline: as §1

[4] = tested on: corn (Zea mays); assay: Test B postemergence; settings: 13 to 15 days
Outline: as §1

[5] = tested on: giant foxtail (Setaria faberii); assay: Test B postemergence; settings: 13 to 15 days
Outline: as §1

[6] = tested on: morning glory (Ipomoea hederacea); assay: Test B postemergence; settings: Rate 500 g/ha, scale 0 to 100, 0 is no effect, 100 is complete control, 13 to 15 days
Outline: as §1

[7] = tested on: pigweed (Amaranthus retroflexus); assay: Test B postemergence; settings: Rate 500 g/ha, scale 0 to 100, 0 is no effect, 100 is complete control, 13 to 15 days
Outline: as §1

[8] = tested on: velvetleaf (Abutilon theophrasti); assay: Test B postemergence; settings: Rate 500 g/ha, scale 0 to 100, 0 is no effect, 100 is complete control, 13 to 15 days
Outline: as §1

[9] = tested on: wheat (Triticum aestivum); assay: Test B postemergence; settings: Rate 500 g/ha, scale 0 to 100, 0 is no effect, 100 is complete control, 13 to 15 days
Outline: as §1

[10] = tested on: Surinam grass (Brachiaria decumbens); assay: Test B preemergence
Outline: as §1

[11] = tested on: barnyardgrass (Echinochloa crus-galli); assay: Test B preemergence
Outline: as §1

[12] = tested on: cocklebur (Xanthium strumarium); assay: Test B preemergence
Outline: as §1

[13] = tested on: corn (Zea mays); assay: Test B preemergence
Outline: as §1

[14] = tested on: crabgrass (Digitaria sanguinalis); assay: Test B preemergence
Outline: as §1

[15] = tested on: giant foxtail (Setaria faberii); assay: Test B preemergence
Outline: as §1

[16] = tested on: lambsquarters (Chenopodium album); assay: Test B preemergence
Outline: as §1

[17] = tested on: morning glory (Ipomoea hederacea); assay: Test B preemergence
Outline: as §1

[18] = tested on: pigweed (Amaranthus retroflexus); assay: Test B preemergence
Outline: as §1

[19] = tested on: rice (Oryza saliva); assay: Test B preemergence
Outline: as §1

[20] = tested on: velvetleaf (Abutilon theophrasti); assay: Test B preemergence
Outline: as §1

[21] = tested on: barnyardgrass (Echinochloa crus-galli); assay: Test C flooded paddy test; settings: for Barnyardgrass plant response rating: Flooded Paddy, scale 0 to 100, 0 no effect, 100 complete control; for Plant response rating, Barnyardgrass: flooded paddy test, scale 0 to 100 (0 no effect, 100 complete control)
Outline: (§2)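 2-leaf-stage plants, flooded paddy; treated; greenhouse 12–14 days; compared with controls by eye; rated 0–100 (0 none, 100 complete control).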

[22] = tested on: duck salad (Heteranthera limosa); assay: Test C flooded paddy test; settings: for Ducksalad plant response rating: Flooded Paddy, scale 0 to 100, 0 no effect, 100 complete control; for Plant response rating, Ducksalad: flooded paddy test, scale 0 to 100 (0 no effect, 100 complete control)
Outline: as §2

[23] = tested on: rice (Oryza saliva); assay: Test C flooded paddy test; settings: for Rice plant response rating: Flooded Paddy, scale 0 to 100, 0 no effect, 100 complete control; for Plant response rating, Rice: flooded paddy test, scale 0 to 100 (0 no effect, 100 complete control)
Outline: as §2

[24] = tested on: smallflower flatsedge (Cyperus difformis); assay: Test C flooded paddy test; settings: for Flatsedge plant response rating: Flooded Paddy, scale 0 to 100, 0 no effect, 100 complete control; for Plant response rating, Flatsedge: flooded paddy test, scale 0 to 100 (0 no effect, 100 complete control)
Outline: as §2

[25] = tested on: Nightshade; assay: Test C preemergence; settings: Rate 500 g/ha, visual evaluation after 12 to 14 days
[26] = tested on: Sunflower; assay: Test C preemergence; settings: Rate 250 g/ha, scale 0 to 100, 0 no effect, 100 complete control
[27] = Rate 125 g/ha, scale 0 (no effect) to 100 (complete control)
[28] = Rate 500 g/ha, scale 0 to 100, 0 is no effect, 100 is complete control
[29] = Preemergence, Rate 500 g/ha, scale 0 to 100, 0 no effect, 100 complete control
[30] = preemergence, Rate 125 g/ha, scale of 0 to 100 where 0 is no effect and 100 is complete control, 13 to 15 days

CCCC(C)c1ccn(C2OCN(c3cccc(C(F)(F)F)c3)C2=O)n1 (stereo not drawn) [Compound 89]
Plant response rating, Surinam grass [1, 27]: 0
Plant response rating, Surinam grass [1, 28]: 0
Plant response rating, Barnyardgrass [2, 27]: 0
Plant response rating, Barnyardgrass [2, 28]: 80
Plant response rating, Blackgrass [3, 27]: 0
Plant response rating, Blackgrass [3, 28]: 0
Plant response rating, Corn [4, 27]: 30
Plant response rating, Corn [4, 28]: 0
Plant response rating, Foxtail, Giant [5, 27]: 90
Plant response rating, Foxtail, Giant [5, 28]: 70
Plant response rating, Morningglory [6]: 40
Plant response rating, Pigweed [7]: 90
Plant response rating, Velvetleaf [8]: 0
Plant response rating, Wheat [9]: 0
Plant response rating, Surinam grass [10, 29]: 100
Plant response rating, Surinam grass [10, 30]: 60
Plant response rating, Barnyardgrass [11, 29]: 100
Plant response rating, Barnyardgrass [11, 30]: 80
Plant response rating, Cocklebur [12, 29]: 0
Plant response rating, Cocklebur [12, 30]: 0
Plant response rating, Corn [13, 29]: 0
Plant response rating, Corn [13, 30]: 0
Plant response rating, Crabgrass [14, 29]: 100
Plant response rating, Crabgrass [14, 30]: 90
Plant response rating, Foxtail, Giant [15, 29]: 100
Plant response rating, Foxtail, Giant [15, 30]: 90
Plant response rating, Lambsquarters [16, 29]: 100
Plant response rating, Lambsquarters [16, 30]: 100
Plant response rating, Morningglory [17, 29]: 0
Plant response rating, Morningglory [17, 30]: 0
Plant response rating, Pigweed [18, 29]: 100
Plant response rating, Pigweed [18, 30]: 90
Plant response rating, Rice [19, 29]: 10
Plant response rating, Rice [19, 30]: 0
Plant response rating, Velvetleaf [20, 29]: 0
Plant response rating, Velvetleaf [20, 30]: 0
Barnyardgrass plant response rating ([21]; Rate 250 g/ha): 100
Barnyardgrass plant response rating ([21]; Rate 500 g/ha): 100
Plant response rating, Barnyardgrass ([21]; Rate 62 g/ha): 20
Plant response rating, Barnyardgrass ([21]; Rate 125 g/ha): 70
Ducksalad plant response rating ([22]; Rate 250 g/ha): 40
Ducksalad plant response rating ([22]; Rate 500 g/ha): 90
Plant response rating, Ducksalad ([22]; Rate 62 g/ha): 0
Plant response rating, Ducksalad ([22]; Rate 125 g/ha): 0
Rice plant response rating ([23]; Rate 250 g/ha): 20
Rice plant response rating ([23]; Rate 500 g/ha): 40
Plant response rating, Rice ([23]; Rate 62 g/ha): 0
Plant response rating, Rice ([23]; Rate 125 g/ha): 0
Flatsedge plant response rating ([24]; Rate 250 g/ha): 90
Flatsedge plant response rating ([24]; Rate 500 g/ha): 100
Plant response rating, Flatsedge ([24]; Rate 62 g/ha): 80
Plant response rating, Flatsedge ([24]; Rate 125 g/ha): 90
Plant response rating (0 to 100), Nightshade [25]: 30
Plant response rating, Sunflower [26]: 0
